The test system of data set [1] is Caspase-3. In words: Caspase-3 activation assay in MCF-7 cells. Format: cell-based, human. As to conditions: for Caspase-3 Conc.: treated at IC50 concentration; for Caspase-3 Fold change: versus untreated control.
For data set [2], the system named is A-549 lung cancer cell line. In words: Antiproliferative assay, A-549. It is filed as cell-based. The conditions noted are these: Homo sapiens, A549; A-549 lung cancer cells; read-out: Antiproliferative activity IC50 ± SEM, A-549.
Data set [3] concerns Panc-1 pancreatic cancer cell line. In words: Antiproliferative assay, Panc-1. It is filed as cell-based. The conditions noted are these: Homo sapiens; Panc-1 pancreatic cancer cells; read-out: Antiproliferative activity IC50 ± SEM, Panc-1.
For data set [4], the system named is MCF-7 breast cancer cell line. In words: Antiproliferative assay, MCF-7. Format: cell-based. As to conditions: Homo sapiens, MCF7; MCF-7 breast cancer cells; read-out: Antiproliferative activity IC50 ± SEM, MCF-7.
For data set [5], the target named is EGFR (Homo sapiens, UniProt P00533). In words: EGFR inhibitory assay (EGFR-TK assay).
Chain of EGFR (P00533 669-1210): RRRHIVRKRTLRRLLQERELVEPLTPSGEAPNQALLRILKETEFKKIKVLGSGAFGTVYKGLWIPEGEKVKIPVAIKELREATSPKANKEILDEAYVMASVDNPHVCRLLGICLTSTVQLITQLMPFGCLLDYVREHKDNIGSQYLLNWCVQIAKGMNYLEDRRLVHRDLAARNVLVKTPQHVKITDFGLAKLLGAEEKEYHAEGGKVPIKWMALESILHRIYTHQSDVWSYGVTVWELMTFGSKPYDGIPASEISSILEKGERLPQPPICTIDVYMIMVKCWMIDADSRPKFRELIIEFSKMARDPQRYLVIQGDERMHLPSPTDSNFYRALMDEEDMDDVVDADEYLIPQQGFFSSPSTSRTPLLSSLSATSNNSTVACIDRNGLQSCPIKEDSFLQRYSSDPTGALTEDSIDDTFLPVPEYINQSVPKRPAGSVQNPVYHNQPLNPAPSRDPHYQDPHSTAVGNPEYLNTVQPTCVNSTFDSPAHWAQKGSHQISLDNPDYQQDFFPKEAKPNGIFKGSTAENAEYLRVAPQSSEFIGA
The subject of data set [6] is four human cancer cell lines (A-549, MCF-7, Panc-1, HT-29). In words: Antiproliferative assay, average over four cancer cell lines. Format: cell-based. The conditions noted are these: Homo sapiens, average IC50 over the four cancer cell lines.
Data set [7] has as its target HER2 (Homo sapiens, UniProt P04626). In words: HER2 inhibitory assay (ADP-Glo kinase assay).
Data set [8] has as its system HT-29 colon cancer cell line. In words: Antiproliferative assay, HT-29. It is filed as cell-based. As to conditions: Homo sapiens; HT-29 colon cancer cells; read-out: Antiproliferative activity IC50 ± SEM, HT-29.
A short description of data set [9]: Cell viability assay (MTT) on MCF-10A normal cells. Format: cell-based. The conditions noted are these: human, MCF-10A mammary gland epithelial normal cells, MCF-10A cells, four-day incubation. As to the method: The impact of compounds 3a–h and 5a–d on cell viability was evaluated using the human mammary (MCF-10A) gland epithelium normal cell line. The MTT assay was used to evaluate the cell viability of 3a–h and 5a–d after a four-day incubation period on MCF-10A cells.[46] Refer to Appendix A for more details.
The effect of new compounds 3a–h and 5a–d on cell viability was evaluated using the MCF-10A (human mammary gland epithelium) normal cell line.
4.2. Biological evaluation
4.2.1 Cell Viability assay (MTT assay)
MTT assay was performed to investigate the effect of the synthesized compounds on mammary epithelial cells (MCF-10A). The cells were propagated in medium consisting of Ham's F-12 medium/ Dulbecco's modified Eagle's medium (DMEM) (1:1) supplemented with 10% foetal calf serum, 2 mM glutamine, insulin (10 μg/mL), hydrocortisone (500 ng/mL) and epidermal growth factor (20 ng/mL). Trypsin ethylenediamine tetra acetic acid (EDTA) was used to passage the cells after every 2-3 days. 96-well flat-bottomed cell culture plates were used to seed the cells at a density of 10^4 cells mL-1. The medium was aspirated from all the wells of culture plates after 24 h followed by the addition of synthesized compounds (in 200 μL medium to yield a final concentration of 0.1% (v/v) dimethyl sulfoxide) into individual wells of the plates. Four wells were designated to a single compound. The plates were allowed to incubate at 37°C for 96 h. Afterwards, the medium was aspirated and 3-[4,5-dimethylthiazol-2-yl]-2,5-diphenyltetrazolium bromide (MTT) (0.4 mg/mL) in medium was added to each well and subsequently incubated for 3 h. The medium was aspirated and 150 μL dimethyl sulfoxide (DMSO) was added to each well. The plates were vortexed followed by the measurement of absorbance at 540 nm on a microplate reader. The results were presented as inhibition (%) of proliferation in contrast to controls comprising 0.1% DMSO.

The subject of data set [10] is Caspase-8. In words: Caspase-8 activation assay in MCF-7 cells. The conditions noted are these: for Caspase-8 Conc.: treated at IC50 concentration; for Caspase-8 Fold change: versus untreated control. Format: cell-based, human.

Chain of HER2 (P04626 676-1255 limits assumed): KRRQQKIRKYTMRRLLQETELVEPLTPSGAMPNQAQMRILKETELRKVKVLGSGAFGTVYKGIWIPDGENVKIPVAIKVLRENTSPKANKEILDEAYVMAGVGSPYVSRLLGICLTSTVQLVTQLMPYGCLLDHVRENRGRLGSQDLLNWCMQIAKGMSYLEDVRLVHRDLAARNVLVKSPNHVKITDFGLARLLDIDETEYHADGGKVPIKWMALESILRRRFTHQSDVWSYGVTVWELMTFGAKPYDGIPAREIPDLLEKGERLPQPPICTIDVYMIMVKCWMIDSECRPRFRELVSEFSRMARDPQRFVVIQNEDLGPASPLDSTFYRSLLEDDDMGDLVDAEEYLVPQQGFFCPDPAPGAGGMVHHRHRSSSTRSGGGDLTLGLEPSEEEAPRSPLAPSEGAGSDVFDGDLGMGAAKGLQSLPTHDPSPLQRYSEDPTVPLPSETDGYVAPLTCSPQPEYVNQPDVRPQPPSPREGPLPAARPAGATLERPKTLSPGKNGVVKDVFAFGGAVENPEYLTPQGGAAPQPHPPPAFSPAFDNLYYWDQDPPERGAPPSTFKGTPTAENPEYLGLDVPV

For `O=c1[nH]c2ccccc2c(O)c1C=Nc1ccc(NS(=O)(=O)c2ncccn2)cc1` [Compound 5a, N-(4-(((4-hydroxy-2-oxo-1,2-dihydroquinolin-3-yl)methylene)amino)phenyl) pyrimidine-2-sulfonamide], the “Caspase-3 Conc.” value in data set [1] was found to be 710 ± 6 pg/mL. In addition, in data set [1], the “Caspase-3 Fold change” value is on record as 11. Also, the IC50 in data set [2] stood at 25 ± 2 nM; in [3], 26 ± 2 nM; in data set [4], 23 ± 2 nM; in data set [5], 71 ± 4 nM; in [7] it was 31 ± 2 nM; in data set [8], 26 ± 2 nM. Also, the GI50 in data set [6] is 25 nM. The viability at 96 h, 50 µM in data set [9] came out at 87%. In addition, the “Caspase-8 Conc.” value in data set [10] was 1.70 ± 0.15 ng/mL. Moreover, the “Caspase-8 Fold change” value in data set [10] was determined as 21.

Take `O=c1[nH]c2ccccc2c(O)c1/C=N/c1nc(-c2ccncc2)n[nH]1` [Compound 3e, (E)-4-hydroxy-3-(((3-(pyridin-4-yl)-1H-1,2,4-triazol-5-yl)imino)methyl)quinolin-2(1H)-one]: the melting point is 327 to 329 °C. Besides, in data set [1], the “Caspase-3 Conc.” value worked out at 587 ± 5 pg/mL and the “Caspase-3 Fold change” value is reported as 9. For the same compound, the IC50 in data set [2] was found to be 32 ± 3 nM. For the same compound, the IC50 in data set [3] worked out at 34 ± 3 nM. Besides, the IC50 in data set [4] was found to be 31 ± 3 nM. The same compound gave an IC50 in [5] of 79 ± 5 nM. The compound also displayed a GI50 in data set [6] of 33 nM. The same compound yielded an IC50 in data set [7] of 39 ± 2 nM. Also, the IC50 in data set [8] is 34 ± 3 nM. In addition, in data set [9], the viability at 96 h, 50 µM came out at 86%. Further, in data set [10], the “Caspase-8 Conc.” value was 1.65 ± 0.20 ng/mL and the “Caspase-8 Fold change” value is recorded as 19.
